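Briefly, cells in 96-well plates were exposed to five compound concentrations for 48 h, and endpoints were estimated by linear interpolation. GI50: concentration for 50% inhibition of growth.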 The source made the active and inactive calls. Cut-off read from the data, not from the text of the source: active = GI50 up to about 1.1 µM and inactive = higher.
Tests used:
Assay in all cases: NCI anticancer screen, dose series, 48 h
OVCAR-8 = tested on: OVCAR-8
SR = tested on: SR
DU-145 = tested on: DU-145
TK-10 = tested on: TK-10
PC-3 = tested on: PC-3
UO-31 = tested on: UO-31
NCI-H226 = tested on: NCI-H226
NCI-H23 = tested on: NCI-H23
U-251 = tested on: U-251
HL-60 = tested on: HL-60
MDA-N = tested on: MDA-N
HCT-116 = tested on: HCT-116
COLO 205 = tested on: COLO 205
MCF7 = tested on: MCF7
MDA-MB-435 = tested on: MDA-MB-435
RPMI-8226 = tested on: RPMI-8226
NCI-H460 = tested on: NCI-H460
SF-268 = tested on: SF-268
Malme-3M = tested on: Malme-3M
MDA-MB-231 = tested on: MDA-MB-231
A498 = tested on: A498
HOP-62 = tested on: HOP-62
NCI/ADR-RES = tested on: NCI/ADR-RES
SK-MEL-28 = tested on: SK-MEL-28
SNB-19 = tested on: SNB-19
OVCAR-5 = tested on: OVCAR-5
RXF 393 = tested on: RXF 393
T47D = tested on: T47D
HCT-15 = tested on: HCT-15
SW-620 = tested on: SW-620
A549 = tested on: A549
K562 = tested on: K562
OVCAR-3 = tested on: OVCAR-3
HT-29 = tested on: HT-29
SK-OV-3 = tested on: SK-OV-3
SNB-75 = tested on: SNB-75
ACHN = tested on: ACHN
CAKI-1 = tested on: CAKI-1
UACC-62 = tested on: UACC-62
M14 = tested on: M14
UACC-257 = tested on: UACC-257
LOX IMVI = tested on: LOX IMVI
Hs-578T = tested on: Hs-578T
KM12 = tested on: KM12
MOLT-4 = tested on: MOLT-4
SN12C = tested on: SN12C
CCRF-CEM = tested on: CCRF-CEM
SF-295 = tested on: SF-295
SK-MEL-5 = tested on: SK-MEL-5
EKVX = tested on: EKVX
SF-539 = tested on: SF-539
HOP-92 = tested on: HOP-92

Measured: GI50

CC1=C(C)Cc2c(O)ccc(O)c2C1
17.5 µM: HCT-15
inactive: OVCAR-8 16.1 µM | SR 12.6 µM | DU-145 20.1 µM | TK-10 20.7 µM | PC-3 15.2 µM | UO-31 16.9 µM | NCI-H226 17.4 µM | NCI-H23 27.9 µM | U-251 16.6 µM | HL-60 5.36 µM | MDA-N 17 µM | HCT-116 15.9 µM | COLO 205 20.4 µM | MCF7 19.2 µM | MDA-MB-435 16.8 µM | RPMI-8226 6 µM | NCI-H460 43.7 µM | SF-268 15.5 µM | Malme-3M 17.5 µM | MDA-MB-231 18 µM | A498 83.9 µM | HOP-62 21.5 µM | NCI/ADR-RES 36.5 µM | SK-MEL-28 12 µM | SNB-19 > 100 µM | OVCAR-5 20.7 µM | RXF 393 15.9 µM | T47D 18.5 µM | SW-620 18.3 µM | A549 18.7 µM | K562 18.8 µM | OVCAR-3 20.4 µM | HT-29 14.1 µM | SK-OV-3 76.2 µM | SNB-75 16.2 µM | ACHN 17.4 µM | CAKI-1 18.2 µM | UACC-62 16.5 µM | M14 16.2 µM | UACC-257 18.2 µM | LOX IMVI 19.9 µM | Hs-578T 17.7 µM | KM12 31.3 µM | MOLT-4 19.3 µM | SN12C 21.8 µM | CCRF-CEM 3.12 µM | SF-295 47.4 µM | SK-MEL-5 14.6 µM | EKVX 14.5 µM | SF-539 20 µM | HOP-92 19.7 µM
